# Literature values as cited in US8614057B2, “Methods for collecting and detecting oligonucleotides” (The Invention Science Fund I, LLC, priority 2008, dated 2013).
# Where two headings read alike, the source gives them in different places.
# Assays:
# [1] = subcutaneous; 40, 8, and 1.6 μg injections once daily over 35 days
# RNAse A [2] = target: T1, RNAse A (Bos taurus, UniProt P61823)
# T1 sequence (P61823 27-150): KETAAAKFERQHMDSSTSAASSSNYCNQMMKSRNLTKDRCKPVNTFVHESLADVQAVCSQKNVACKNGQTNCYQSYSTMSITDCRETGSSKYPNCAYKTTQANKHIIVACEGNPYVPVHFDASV
# [3] = target: RNase-2 (eosinophil derived neurotoxin) (Homo sapiens, UniProt P10153)
# RNase-4 = target: T2, RNase-4 (Homo sapiens, UniProt P34096)
# T2 sequence (P34096 29-147): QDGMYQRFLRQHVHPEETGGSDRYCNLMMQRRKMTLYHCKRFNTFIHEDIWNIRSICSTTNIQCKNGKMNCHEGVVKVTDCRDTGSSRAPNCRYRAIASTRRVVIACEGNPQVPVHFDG
# [4] = in humans
# RNAse A [5] = target: T1, RNAse A; conditions: RNAse A catalysis
# Chain of RNase-2 (eosinophil derived neurotoxin) (P10153 28-161): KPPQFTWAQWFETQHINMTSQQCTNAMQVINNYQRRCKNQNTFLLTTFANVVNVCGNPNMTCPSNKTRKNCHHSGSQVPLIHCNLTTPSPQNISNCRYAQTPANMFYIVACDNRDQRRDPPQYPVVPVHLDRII
molecule,measurement,setting,value
Nc1ccc(N=Nc2ccc(-c3ccc(O)cc3)cc2)c2ccc(S(=O)(=O)O)cc12 [8-amino-5-(4′-hydroxylbiphenyl-4-ylazo)naphthalene-2-sulfonate],toxicity to the animals,[1],without overt toxicity
"Nc1ncnc2c1ncn2C1OC(COP(=O)(O)OP(=O)(O)OC2CC(n3ccc(=O)[nH]c3=O)OC2COP(=O)(O)O)C(OP(=O)(O)O)C1O (centres unmarked) [pdUppAp, 5′-phosphor-2′-deoxyuridine 3′-pyrophosphate, P′-P5-ester with adenosine 3′-phosphate]",Ki,RNAse A [2]; pH 5.9,27 nM
same,Ki,RNAse A [2]; pH 7.0,240 nM
same,inhibition of RNase-2 activity,[3],inhibits the activity
same,inhibition of RNase-4 activity,RNase-4,inhibits the activity
Etanercept,half-life,[4],70 h
oligo(vinylsulfonic acid),Ki,"RNAse A [5]; 0 mM sodium chloride end of the range 0 to 100 mM, read-out: inhibition constant (Ki), lower end of reported range",~0.01 nM
same,Ki,"RNAse A [5]; 100 mM sodium chloride end of the range 0 to 100 mM, read-out: inhibition constant (Ki), upper end of reported range",~120 nM
